Measurements from ChEMBL document CHEMBL1153037, “Synthesis and structure-activity relationship studies of cytotoxic anhydrovinblastine amide derivatives” (J Nat Prod, 2009).
Where a name gives a salt, the structure may show the parent alone.

Tests used:
[1] = test system: HeLa; assay: Cytotoxicity against human HeLa cells by sulforhodamine B assay; assay type: functional, cell-based
[2] = test system: A549; assay: Cytotoxicity against human A549 cells by sulforhodamine B assay; assay type: functional, cell-based
[3] = test system: CCRF S-180; assay: Toxicity against mouse S180 cells xenografted in Kunming mouse at 10 mg/kg, iv administered on day 1 and 4; assay type: functional, organism-based; design: dose 10 mg/kg
[4] = test system: CCRF S-180; assay: Antitumor activity against mouse S180 cells xenografted in Kunming mouse at 20 mg/kg, iv administered as single dose on day 1; assay type: functional; settings: CCRF S-180, 24 h
[5] = test system: CCRF S-180; assay: Antitumor activity against mouse S180 cells xenografted in Kunming mouse at 10 mg/kg, iv administered on day 1 and 4; assay type: functional; settings: for inhibition in vivo at 10 mg/kg: Mus musculus

## CCC1=C[C@@H]2CN(CCc3c([nH]c4ccccc34)[C@@](C(=O)OC)(c3cc4c(cc3OC)N(C)[C@H]3[C@@](O)(CNC(=O)c5cccc(Cl)c5)[C@H](OC(C)=O)[C@]5(CC)C=CCN6CC[C@]43[C@@H]65)C2)C1
[1]
  IC50: 67 nM
[2]; Homo sapiens, A549
  IC50: 26 nM

## CCC1=C[C@@H]2CN(CCc3c([nH]c4ccccc34)[C@@](C(=O)OC)(c3cc4c(cc3OC)N(C)[C@H]3[C@@](O)(CNC(=O)Cc5ccccc5)[C@H](OC(C)=O)[C@]5(CC)C=CCN6CC[C@]43[C@@H]65)C2)C1
[1]
  IC50: 78 nM
[2]; Homo sapiens, A549
  IC50: 39 nM

## CCC1=C[C@@H]2CN(C1)Cc1c([nH]c3ccccc13)[C@@](C(=O)OC)(c1cc3c(cc1OC)N(C)[C@H]1[C@@](O)(C(=O)OC)[C@H](OC(C)=O)[C@]4(CC)C=CCN5CC[C@]31[C@@H]54)C2
[3]
  Activity: Not toxic

## CCC1=C[C@@H]2CN(CCc3c([nH]c4ccccc34)[C@@](C(=O)OC)(c3cc4c(cc3OC)N(C)[C@H]3[C@@](O)(CNC(=O)c5ccccc5Cl)[C@H](OC(C)=O)[C@]5(CC)C=CCN6CC[C@]43[C@@H]65)C2)C1
[1]
  IC50: 89 nM
[2]; Homo sapiens, A549
  IC50: 24 nM

## CCC(=O)NC[C@@]1(O)[C@H](OC(C)=O)[C@]2(CC)C=CCN3CC[C@@]4(c5cc([C@@]6(C(=O)OC)C[C@@H]7C=C(CC)CN(CCc8c6[nH]c6ccccc86)C7)c(OC)cc5N(C)[C@@H]14)[C@@H]32
[4]
  inhibition in vivo at 20 mg/kg: 90%
[1]
  IC50: 57 nM
[5]; CCRF S-180, 24 h
  inhibition in vivo at 10 mg/kg: 84.4%
[2]; Homo sapiens, A549
  IC50: 43 nM
[3]
  Activity: Not toxic

## CCC1=C[C@@H]2CN(CCc3c([nH]c4ccccc34)[C@@](C(=O)OC)(c3cc4c(cc3OC)N(C)[C@H]3[C@@](O)(CNC(=O)c5ccc6c(c5)OCO6)[C@H](OC(C)=O)[C@]5(CC)C=CCN6CC[C@]43[C@@H]65)C2)C1
[4]
  inhibition in vivo at 20 mg/kg: 66.3%
[1]
  IC50: 33 nM
[5]; CCRF S-180, 24 h
  inhibition in vivo at 10 mg/kg: 58.1%
[2]; Homo sapiens, A549
  IC50: 8 nM
[3]
  Activity: Not toxic

## CCC1=C[C@@H]2CN(CCc3c([nH]c4ccccc34)[C@@](C(=O)OC)(c3cc4c(cc3OC)N(C)[C@H]3[C@@](O)(CNC(=O)c5ccc(F)cc5)[C@H](OC(C)=O)[C@]5(CC)C=CCN6CC[C@]43[C@@H]65)C2)C1
[1]
  IC50: 25 nM
[2]; Homo sapiens, A549
  IC50: 20 nM

## CCC1=C[C@@H]2CN(CCc3c([nH]c4ccccc34)[C@@](C(=O)OC)(c3cc4c(cc3OC)N(C)[C@H]3[C@@](O)(CNC(=O)CC(C)(C)C)[C@H](OC(C)=O)[C@]5(CC)C=CCN6CC[C@]43[C@@H]65)C2)C1
[1]
  IC50: 93 nM
[2]; Homo sapiens, A549
  IC50: 115 nM

## CCC1=C[C@@H]2CN(C1)Cc1c([nH]c3ccccc13)[C@@](C(=O)OC)(c1cc3c(cc1OC)N(C)[C@H]1[C@@](O)(C(=O)OC)[C@H](OC(C)=O)[C@]4(CC)C=CCN5CC[C@]31[C@@H]54)C2 [VINORELBINE]
[5]
  inhibition (INH): 69.4%
[2]; a549
  IC50: 30 nM

## CCC1=C[C@@H]2CN(CCc3c([nH]c4ccccc34)[C@@](C(=O)OC)(c3cc4c(cc3OC)N(C)[C@H]3[C@@](O)(CNC(=O)C5CC5)[C@H](OC(C)=O)[C@]5(CC)C=CCN6CC[C@]43[C@@H]65)C2)C1
[4]
  inhibition in vivo at 20 mg/kg: 88.8%
[1]
  IC50: 35 nM
[5]; CCRF S-180, 24 h
  inhibition in vivo at 10 mg/kg: 81.3%
[2]; Homo sapiens, A549
  IC50: 26 nM

## CCC1=C[C@@H]2CN(C1)Cc1c([nH]c3ccccc13)[C@@](C(=O)OC)(c1cc3c(cc1OC)N(C)[C@H]1[C@@](O)(C(=O)OC)[C@H](OC(C)=O)[C@]4(CC)C=CCN5CC[C@]31[C@@H]54)C2 [VINORELBINE TARTRATE]
[5]; CCRF S-180, iv, 24 h
  inhibition in vivo at 10 mg/kg: 62.5%

## CCCC(=O)NC[C@@]1(O)[C@H](OC(C)=O)[C@]2(CC)C=CCN3CC[C@@]4(c5cc([C@@]6(C(=O)OC)C[C@@H]7C=C(CC)CN(CCc8c6[nH]c6ccccc86)C7)c(OC)cc5N(C)[C@@H]14)[C@@H]32
[1]
  IC50: 97 nM
[2]; Homo sapiens, A549
  IC50: 96 nM

## CCC1=C[C@@H]2CN(CCc3c([nH]c4ccccc34)[C@@](C(=O)OC)(c3cc4c(cc3OC)N(C)[C@H]3[C@@](O)(CNC(=O)c5ccc(Cl)cc5)[C@H](OC(C)=O)[C@]5(CC)C=CCN6CC[C@]43[C@@H]65)C2)C1
[1]
  IC50: 47 nM
[2]; Homo sapiens, A549
  IC50: 25 nM

## CCC1=C[C@@H]2CN(CCc3c([nH]c4ccccc34)[C@@](C(=O)OC)(c3cc4c(cc3OC)N(C)[C@H]3[C@@](O)(CNC(=O)C(C)C)[C@H](OC(C)=O)[C@]5(CC)C=CCN6CC[C@]43[C@@H]65)C2)C1
[1]
  IC50: 132 nM
[2]; Homo sapiens, A549
  IC50: 101 nM

## CCC1=C[C@@H]2CN(CCc3c([nH]c4ccccc34)[C@@](C(=O)OC)(c3cc4c(cc3OC)N(C)[C@H]3[C@@](O)(CNC(=O)C(C)(C)C)[C@H](OC(C)=O)[C@]5(CC)C=CCN6CC[C@]43[C@@H]65)C2)C1
[1]
  IC50: 61 nM
[2]; Homo sapiens, A549
  IC50: 95 nM

## CCC1=C[C@@H]2CN(CCc3c([nH]c4ccccc34)[C@@](C(=O)OC)(c3cc4c(cc3OC)N(C)[C@H]3[C@@](O)(CNC(=O)c5ccncc5)[C@H](OC(C)=O)[C@]5(CC)C=CCN6CC[C@]43[C@@H]65)C2)C1
[1]
  IC50: 24 nM
[2]; Homo sapiens, A549
  IC50: 27 nM

## CCC1=C[C@@H]2CN(CCc3c([nH]c4ccccc34)[C@@](C(=O)OC)(c3cc4c(cc3OC)N(C)[C@H]3[C@@](O)(CNC(C)=O)[C@H](OC(C)=O)[C@]5(CC)C=CCN6CC[C@]43[C@@H]65)C2)C1
[1]
  IC50: 444 nM
[2]; Homo sapiens, A549
  IC50: 22 nM

## CCC1=C[C@@H]2CN(CCc3c([nH]c4ccccc34)[C@@](C(=O)OC)(c3cc4c(cc3OC)N(C)[C@H]3[C@@](O)(CNC(=O)c5ccccc5OC)[C@H](OC(C)=O)[C@]5(CC)C=CCN6CC[C@]43[C@@H]65)C2)C1
[1]
  IC50: 21 nM
[2]; Homo sapiens, A549
  IC50: 10 nM

## CCC1=C[C@@H]2CN(CCc3c([nH]c4ccccc34)[C@@](C(=O)OC)(c3cc4c(cc3OC)N(C)[C@H]3[C@@](O)(CNC(=O)CC(C)C)[C@H](OC(C)=O)[C@]5(CC)C=CCN6CC[C@]43[C@@H]65)C2)C1
[1]
  IC50: 85 nM
[2]; Homo sapiens, A549
  IC50: 152 nM

## CCC1=C[C@@H]2CN(CCc3c([nH]c4ccccc34)[C@@](C(=O)OC)(c3cc4c(cc3OC)N(C)[C@H]3[C@@](O)(CNC(=O)C5CCC5)[C@H](OC(C)=O)[C@]5(CC)C=CCN6CC[C@]43[C@@H]65)C2)C1
[1]
  IC50: 68 nM
[2]; Homo sapiens, A549
  IC50: 34 nM

## CCC1=C[C@@H]2CN(CCc3c([nH]c4ccccc34)[C@@](C(=O)OC)(c3cc4c(cc3OC)N(C)[C@H]3[C@@](O)(CNC(=O)c5ccc([N+](=O)[O-])cc5)[C@H](OC(C)=O)[C@]5(CC)C=CCN6CC[C@]43[C@@H]65)C2)C1
[1]
  IC50: 23 nM
[2]; Homo sapiens, A549
  IC50: 33 nM

## CCC1=C[C@@H]2CN(CCc3c([nH]c4ccccc34)[C@@](C(=O)OC)(c3cc4c(cc3OC)N(C)[C@H]3[C@@](O)(CNC(=O)c5ccc(OC)cc5)[C@H](OC(C)=O)[C@]5(CC)C=CCN6CC[C@]43[C@@H]65)C2)C1
[1]
  IC50: 139 nM
[2]; Homo sapiens, A549
  IC50: 30 nM

## CCC1=C[C@@H]2CN(CCc3c([nH]c4ccccc34)[C@@](C(=O)OC)(c3cc4c(cc3OC)N(C)[C@H]3[C@@](O)(CNC(=O)c5ccccc5)[C@H](OC(C)=O)[C@]5(CC)C=CCN6CC[C@]43[C@@H]65)C2)C1
[1]
  IC50: 26 nM
[2]; Homo sapiens, A549
  IC50: 27 nM
